# Laboratory results as given in article PMC9048505 (RSC Advances, 2020).
# How the values were obtained:
# HepG-2 = test: In vitro anti-proliferative activity, MTT assay, HepG-2; assay type: cell-based, human; settings: Homo sapiens, HepG2; MTT, 24 h treatment, mean ± S.D. of three separate experiments
# Description: (§1) The cells were obtained from ATCC (American Type Culture Collection) via the Holding company for biological products and vaccines (VACSERA) (Cairo, Egypt). […] After incubation period, the cell lines were treated with different concentration of the synthesized compounds and incubated for 24 h. After treatment by 24 h, 20 μL of MTT solution (5 mg mL^−1) was added and incubated for 4 h. Dimethyl sulfoxide (100 μL) was added into each well to dissolve the formed purple formazan. […] The relative cell viability in percentage was calculated as (A570 of treated samples/A570 of untreated sample) X 100.
# MCF-7 = test: In vitro anti-proliferative activity, MTT assay, MCF-7; assay type: cell-based, human; settings: Homo sapiens, MCF7; MTT, 24 h treatment, mean ± S.D. of three separate experiments
# Description: as §1
# HCT-116 = test: In vitro anti-proliferative activity, MTT assay, HCT-116; assay type: cell-based, human; settings: Homo sapiens, HCT-116; MTT, 24 h treatment, mean ± S.D. of three separate experiments
# Description: as §1
# purified bovine tubulin = target: T1, purified bovine tubulin (Bos taurus, UniProt P81947+Q6B856); test: In vitro tubulin polymerization assay; assay type: biochemical; settings: purified bovine tubulin 10 μM, 37 °C; read-out: IC50 Tubulin polymerization inhibition
# T1 construct: purified bovine tubulin (10 μM); from tissue; host or cells: bovine
# T1 sequence (Q6B856 whole entry): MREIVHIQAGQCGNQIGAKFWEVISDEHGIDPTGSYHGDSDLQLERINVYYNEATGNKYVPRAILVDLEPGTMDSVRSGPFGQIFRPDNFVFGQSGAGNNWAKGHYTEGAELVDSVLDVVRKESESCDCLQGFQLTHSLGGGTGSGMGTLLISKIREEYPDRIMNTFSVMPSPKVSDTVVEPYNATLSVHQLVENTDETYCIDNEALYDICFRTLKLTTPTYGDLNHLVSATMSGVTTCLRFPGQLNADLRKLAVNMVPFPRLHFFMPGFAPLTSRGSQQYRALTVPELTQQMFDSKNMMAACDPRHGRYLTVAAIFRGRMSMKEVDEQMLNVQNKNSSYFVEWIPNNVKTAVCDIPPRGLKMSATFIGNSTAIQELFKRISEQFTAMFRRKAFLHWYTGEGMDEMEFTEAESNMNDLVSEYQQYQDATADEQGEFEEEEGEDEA
# T1 sequence (P81947 whole entry): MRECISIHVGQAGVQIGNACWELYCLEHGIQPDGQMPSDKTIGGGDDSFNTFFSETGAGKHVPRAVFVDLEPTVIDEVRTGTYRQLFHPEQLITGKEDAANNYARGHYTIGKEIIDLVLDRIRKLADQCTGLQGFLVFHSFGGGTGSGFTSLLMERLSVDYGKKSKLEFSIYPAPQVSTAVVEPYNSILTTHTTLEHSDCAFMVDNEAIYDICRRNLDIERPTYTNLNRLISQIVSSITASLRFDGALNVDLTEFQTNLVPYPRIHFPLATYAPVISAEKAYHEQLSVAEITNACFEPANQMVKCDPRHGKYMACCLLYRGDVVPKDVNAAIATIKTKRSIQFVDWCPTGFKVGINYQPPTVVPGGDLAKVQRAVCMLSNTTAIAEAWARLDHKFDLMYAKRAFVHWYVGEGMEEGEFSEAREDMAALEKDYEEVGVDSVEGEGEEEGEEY
# Description: The inhibition assay on microtubule polymerization was evaluated turbidimetrically using a fluorescent plate reader.[52]
smiles,measurement,setting,value
"COc1ccc(/C(C)=N/NC2=N/C(=C/c3cccs3)C(=O)S2)cc1OC [Compound 5b, (E)-2-(2-((E)-1-(3,4-Dimethoxyphenyl)ethylidene)hydrazinyl)-4-(thiophen-2-ylmethylene)thiazol-5(4H)-one]",IC50,HepG-2,17.5 ± 0.7 µM
same,IC50,MCF-7,21.8 ± 1 µM
same,melting point,,208 to 210 °C
same,IC50,HCT-116,18.4 ± 0.2 µM
"C/C(=N\NC(N)=S)c1cccs1 [Compound 7a, (E)-2-(1-(Thiophen-2-yl)ethylidene)hydrazine-1-carbothioamide]",IC50,HepG-2,> 50 µM
same,IC50,MCF-7,> 50 µM
same,IC50,HCT-116,> 50 µM
"C/C(=N\NC(N)=S)c1ccco1 [Compound 7b, (E)-2-(1-(Furan-2-yl)ethylidene)hydrazine-1-carbothioamide]",IC50,HepG-2,> 50 µM
same,IC50,MCF-7,> 50 µM
same,IC50,HCT-116,> 50 µM
"COc1ccc(/C=C2/N=C(N/N=C(\C)c3cccs3)SC2=O)cc1 [Compound 8a, 4-((E)-4-Methoxybenzylidene)-2-(2-((E)-1-(thiophen-2-yl)ethylidene)hydra-zinyl)thiazol-5(4H)-one]",IC50,HepG-2,26.6 ± 0.9 µM
same,IC50,MCF-7,32.1 ± 1.2 µM
same,melting point,,243 to 245 °C
same,IC50,HCT-116,35.5 ± 2 µM
"C/C(=N\NC1=N/C(=C/c2ccc(Cl)cc2)C(=O)S1)c1cccs1 [Compound 8b, 4-((E)-4-Chlorobenzylidene)-2-(2-((E)-1-(thiophen-2-yl)ethylidene)hydra-zinyl)thiazol-5(4H)-one]",IC50,HepG-2,19.5 ± 0.7 µM
same,IC50,MCF-7,18.2 ± 0.6 µM
same,melting point,,252 to 254 °C
same,IC50,HCT-116,18.7 ± 0.6 µM
"C/C(=N\NC1=N/C(=C/c2ccc(O)cc2)C(=O)S1)c1cccs1 [Compound 8c, 4-((E)-4-Hydroxybenzylidene)-2-(2-((E)-1-(thiophen-2-yl)ethylidene)hydra-zinyl)thiazol-5(4H)-one]",IC50,HepG-2,12.2 ± 0.3 µM
same,IC50,MCF-7,19 ± 0.5 µM
same,melting point,,178 to 180 °C
same,IC50,HCT-116,17.2 ± 0.9 µM
"C/C(=N\NC1=N/C(=C/c2ccc(Cl)cc2Cl)C(=O)S1)c1cccs1 [Compound 8d, 4-((E)-2,4-Dichlorobenzylidene)-2-(2-((E)-1-(thiophen-2-yl)ethylidene) hydrazinyl)thiazol-5(4H)-one]",IC50,HepG-2,45.3 ± 1.2 µM
same,IC50,MCF-7,> 50 µM
same,melting point,,274 to 276 °C
same,IC50,HCT-116,48.6 ± 1.8 µM
"COc1ccc(/C=C2/N=C(N/N=C(\C)c3cccs3)SC2=O)cc1OC [Compound 8e, 4-((E)-3,4-Dimethoxybenzylidene)-2-(2-((E)-1-(thiophen-2-yl)ethylidene) hydrazinyl) thiazol-5(4H)-one]",IC50,HepG-2,27.8 ± 0.5 µM
same,IC50,MCF-7,25.8 ± 0.6 µM
same,melting point,,248 to 250 °C
same,IC50,HCT-116,34.7 ± 1 µM
"C/C(=N\NC1=N/C(=C/c2ccc(O)cc2O)C(=O)S1)c1cccs1 [Compound 8f, 4-((E)-2,4-Dihydroxybenzylidene)-2-(2-((E)-1-(thiophen-2-yl)ethylidene) hydrazinyl) thiazol-5(4H)-one]",IC50,HepG-2,3.23 ± 0.1 µM
same,IC50,MCF-7,7.65 ± 0.2 µM
same,IC50,purified bovine tubulin,0.0116 ± 0.0002 µM
same,melting point,,> 300 °C
same,IC50,HCT-116,8.96 ± 0.2 µM
"COc1ccc(/C=C2/N=C(N/N=C(\C)c3ccco3)SC2=O)cc1 [Compound 8g, 2-(2-((E)-1-(Furan-2-yl)ethylidene)hydrazinyl)-4-((E)-4-methoxybenzylid-ene)thiazol-5(4H)-one]",IC50,HepG-2,4.69 ± 0.1 µM
same,IC50,MCF-7,9.29 ± 0.1 µM
same,IC50,purified bovine tubulin,0.0142 ± 0.0003 µM
same,melting point,,288 to 290 °C
same,IC50,HCT-116,6.59 ± 0.1 µM
"C/C(=N\NC1=N/C(=C/c2ccc(Cl)cc2)C(=O)S1)c1ccco1 [Compound 8h, 4-((E)-4-Chlorobenzylidene)-2-(2-((E)-1-(furan-2-yl)ethylidene)hydra-zinyl)thiazol-5(4H)-one]",IC50,HepG-2,10.3 ± 0.6 µM
same,IC50,MCF-7,20 ± 0.4 µM
same,IC50,purified bovine tubulin,0.0384 ± 0.0014 µM
same,melting point,,272 to 274 °C
same,IC50,HCT-116,12 ± 0.3 µM
"C/C(=N\NC1=N/C(=C/c2ccc(Cl)cc2Cl)C(=O)S1)c1ccco1 [Compound 8j, 4-((E)-2,4-Dichlorobenzylidene)-2-(2-((E)-1-(furan-2-yl)ethylidene) hydrazinyl) thiazol-5(4H)-one]",IC50,HepG-2,> 50 µM
same,IC50,MCF-7,> 50 µM
same,melting point,,264 to 266 °C
same,IC50,HCT-116,> 50 µM
"C/C(=N\NC1=N/C(=C/c2cccs2)C(=O)S1)c1ccco1 [Compound 9b, (E)-2-(2-((E)-1-(Furan-2-yl)ethylidene)hydrazinyl)-4-(thiophen-2-ylmethylene) thiazol-5(4H)-one]",IC50,HepG-2,45.1 ± 0.7 µM
same,IC50,MCF-7,> 50 µM
same,melting point,,203 to 205 °C
same,IC50,HCT-116,> 50 µM
